Test results from patent US10201564B2, “Methods of using inhaled nitric oxide gas for treatment of acute respiratory distress syndrome in children” (Mallinckrodt Hospital Products IP Limited, priority 2014, dated 2019).

System: pediatric subjects with acute hypoxemic respiratory failure (AHRF)
Assay: Pediatric AHRF study: adverse events, serious adverse events, deaths, discontinuations
Type: in vivo, human
Conditions: 5 ppm
Protocol: This was a prospective, multicenter, randomized, double-blind, placebo-controlled, parallel-group study of the safety and efficacy of inhaled nitric oxide in pediatric subjects with acute hypoxemic respiratory failure (AHRF). The subjects were randomized to receive either 5 ppm inhaled nitric oxide or placebo.
Nitric Oxide for inhalation at 5 ppm was administered continuously into the inspiratory limb of the ventilator circuit in mechanically ventilated subjects using a blinded version of the INOvent® delivery system.
Subjects received 100% treatment gas (nitric oxide 5 ppm or placebo [nitrogen gas]) until Day 28 or extubation, whichever occurred first.
This was a prospective, multicenter, randomized, double-blind, placebo-controlled, Phase III study to assess the effects of nitric oxide for inhalation in the treatment of acute hypoxic respiratory failure (AHRF) in pediatric subjects. The study population consisted of male and female pediatric subjects, aged 44 weeks postconceptional age to 16 years age, who were admitted to the pediatric intensive care unit (PICU) and who required intubation because of AHRF. The inclusion/exclusion criteria are described in the Patients section below.
Standardized ventilatory management and weaning procedures were used. Ventilatory management was used based on an “open lung approach” using positive end-expiratory pressure (PEEP) to increase lung volume and limiting tidal volumes to reduce plateau pressures. Subjects received nitric oxide for inhalation at 5 ppm or placebo (100% Grade 5 nitrogen gas) into the inspiratory limb of the ventilator circuit using a blinded version of the INOvent® delivery system. The subjects were treated until Day 28 or extubation, whichever occurred first. Subjects were assessed daily using a spontaneous breathing trial, according to the institution's standard of care. Arterial blood gases (ABG), ventilator settings, methemoglobin, oxygenation index, systolic blood pressure, diastolic blood pressure, Pediatric Risk of Mortality (PRISM) III score, and subject positioning (prone or supine) were performed/recorded at specified times during the study. Selected centers also performed plasma cytokine assays, bronchoalveolar lavage fluid (BALF) assays, and a 6-month follow-up assessment.

[1] = AE with death as outcome, not suspected related to treatment
[2] = AE with death as outcome, suspected related to treatment
[3] = relationship to study treatment Not Suspected
[4] = relationship to study treatment Suspected

In the case of `[N]=O` [Nitric Oxide, nitric oxide], the Hepatic failure [1] is reported as 0 (0.0) n (%), the Hypotension [1] is reported as 1 (3.8%) n (%) and the Intracranial pressure increased [1] is reported as 0 (0.0) n (%). For the same compound, the Multi-organ failure [1] was 0 (0.0) n (%), the Pancreatitis [1] was 0 (0.0) n (%) and the “Pneumonia, aspergillus” value [1] was 0 (0.0) n (%). For the same compound, the Pulmonary hemorrhage [1] was 0 (0.0) n (%), the Renal failure [1] was 0 (0.0) n (%) and the Renal impairment [1] was 0 (0.0) n (%). For the same compound, the Sepsis [1] was 0 (0.0) n (%), the Bradycardia [2] was 0 (0.0) n (%) and the Brain edema [2] was 0 (0.0) n (%). The Cardiac arrest [2] was 0 (0.0) n (%), the Diabetic ketoacidosis [2] was 0 (0.0) n (%) and the Hemolytic anemia [2] was 0 (0.0) n (%). For the same compound, the Hepatic failure [2] was 0 (0.0) n (%), the Hypotension [2] was 0 (0.0) n (%) and the Intracranial pressure increased [2] was 0 (0.0) n (%). For the same compound, the Multi-organ failure [2] was 0 (0.0) n (%), the Pancreatitis [2] was 0 (0.0) n (%) and the “Pneumonia, aspergillus” value [2] was 0 (0.0) n (%). For the same compound, the Pulmonary hemorrhage [2] was 0 (0.0) n (%), the Renal failure [2] was 0 (0.0) n (%) and the Renal impairment [2] was 0 (0.0) n (%). For the same compound, the Sepsis [2] was 0 (0.0) n (%), the “Adverse event where treatment was stopped: Bradycardia, subjects n (%)” value (by actual treatment received) was 1 (3.8%) and the “Adverse event where treatment was stopped: Hypotension, subjects n (%)” value (by actual treatment received) was 1 (3.8%). The “Adverse event where treatment was stopped: Pulmonary hemorrhage, subjects n (%)” value (by actual treatment received) was 0 (00) ^, the “Adverse event where treatment was stopped: Sepsis, subjects n (%)” value (by actual treatment received) was 0 (0.0)^ and the “Serious adverse event: Bradycardia, subjects n (%)” value (by actual treatment received) was 1 (3.8%). For the same compound, the “Serious adverse event: Brain edema, subjects n (%)” value (by actual treatment received) was 0 (0.0), the “Serious adverse event: Cardiac arrest, subjects n (%)” value (by actual treatment received) was 0 (0.0) and the “Serious adverse event: Cerebral artery occlusion, subjects n (%)” value (by actual treatment received) was 0 (0.0). For the same compound, the “Serious adverse event: Diabetic ketoacidosis, subjects n (%)” value (by actual treatment received) was 0 (0.0), the “Serious adverse event: Hemolytic anemia, subjects n (%)” value (by actual treatment received) was 0 (0.0) and the “Serious adverse event: Hemopneumothorax, subjects n (%)” value (by actual treatment received) was 0 (0.0). The “Serious adverse event: Hemothorax, subjects n (%)” value (by actual treatment received) was 0 (0.0), the “Serious adverse event: Hepatic failure, subjects n (%)” value (by actual treatment received) was 0 (0.0) and the “Serious adverse event: Hypotension, subjects n (%)” value (by actual treatment received) was 1 (3.8%). For the same compound, the “Serious adverse event: Hypoxia, subjects n (%)” value (by actual treatment received) was 0 (0.0), the “Serious adverse event: Intracranial pressure increased, subjects n (%)” value (by actual treatment received) was 0 (0.0) and the “Serious adverse event: Multi-organ failure, subjects n (%)” value (by actual treatment received) was 0 (0.0). For the same compound, the “Serious adverse event: Pancreatitis, subjects n (%)” value (by actual treatment received) was 0 (0.0), the “Serious adverse event: Pneumonia, aspergillus, subjects n (%)” value (by actual treatment received) was 0 (0.0) and the “Serious adverse event: Pulmonary hemorrhage, subjects n (%)” value (by actual treatment received) was 0 (0.0). The “Serious adverse event: Renal failure, acute, subjects n (%)” value (by actual treatment received) was 0 (0.0), the “Serious adverse event: Renal failure, subjects n (%)” value (by actual treatment received) was 0 (0.0) and the “Serious adverse event: Renal impairment, subjects n (%)” value (by actual treatment received) was 0 (0.0). The “Serious adverse event: Respiratory failure, subjects n (%)” value (by actual treatment received) was 0 (0.0), the “Serious adverse event: Sepsis, subjects n (%)” value (by actual treatment received) was 0 (0.0) and the “Serious adverse event: Subdural hematoma, subjects n (%)” value (by actual treatment received) was 0 (0.0). The “Serious adverse event: Unevaluable event, subjects n (%)” value (by actual treatment received) was 0 (0.0), the “likelihood to experience adverse events versus placebo” value (in words) was “no more likely” and the “overall safety and tolerability in children with AHRF” value (in words) was “safe and well tolerated”. For the same compound, the “safety profile versus placebo (methemoglobin levels, frequency of AEs, mortality rates)” value (in words) was “compare favorably”, the “Subjects with one or more AEs” value (n = 26) was 16 (61.5%) n (%) and the “Subjects with one or more AEs suspected to be related to study treatment” value (n = 26) was 0 (0)^ ^ n (%). The “Subjects with one or more SAEs” value (n = 26) was 1 (3.9%) n (%), the “Subjects with one or more severe AEs” value (n = 26) was 2 (7.7%) n (%) and the “Subjects withdrawn due to AEs” value (n = 26) was 1 (3.9%) n (%). The “Total AEs leading to discontinuation of study treatment” value (n = 26) was 2, the “Total AEs suspected to be related to study treatment” value (n = 26) was 0 and the “Total SAEs” value (n = 26) was 2. The “Total SAEs or AEs leading to discontinuation of study treatment suspected to be related to study treatment” value (n = 26) was 0, the “Total severe AEs” value (n = 26) was 4 and the “Total AEs” value (n = 26, counted by dictionary-derived term) was 52. The “Adverse event where treatment was stopped: Bradycardia, subjects n (%)” value [3] was 1 (3.8%), the “Adverse event where treatment was stopped: Hypotension, subjects n (%)” value [3] was 1 (3.8%) and the “Adverse event where treatment was stopped: Pulmonary hemorrhage, subjects n (%)” value [3] was 0 (0.0)^. For the same compound, the “Adverse event where treatment was stopped: Sepsis, subjects n (%)” value [3] was 0 (0.0)^, the “Serious adverse event: Bradycardia, subjects n (%)” value [3] was 1 (3.8%) and the “Serious adverse event: Brain edema, subjects n (%)” value [3] was 0 (0.0). For the same compound, the “Serious adverse event: Cardiac arrest, subjects n (%)” value [3] was 0 (0.0), the “Serious adverse event: Cerebral artery occlusion, subjects n (%)” value [3] was 0 (0.0) and the “Serious adverse event: Diabetic ketoacidosis, subjects n (%)” value [3] was 0 (0.0). The “Serious adverse event: Hemolytic anemia, subjects n (%)” value [3] was 0 (0.0), the “Serious adverse event: Hemopneumothorax, subjects n (%)” value [3] was 0 (0.0) and the “Serious adverse event: Hemothorax, subjects n (%)” value [3] was 0 (0.0). For the same compound, the “Serious adverse event: Hepatic failure, subjects n (%)” value [3] was 0 (0.0), the “Serious adverse event: Hypotension, subjects n (%)” value [3] was 1 (3.8%) and the “Serious adverse event: Hypoxia, subjects n (%)” value [3] was 0 (0.0). The “Serious adverse event: Intracranial pressure increased, subjects n (%)” value [3] was 0 (0.0), the “Serious adverse event: Multi-organ failure, subjects n (%)” value [3] was 0 (0.0) and the “Serious adverse event: Pancreatitis, subjects n (%)” value [3] was 0 (0.0). For the same compound, the “Serious adverse event: Pneumonia, aspergillus, subjects n (%)” value [3] was 0 (0.0), the “Serious adverse event: Pulmonary hemorrhage, subjects n (%)” value [3] was 0 (0.0) and the “Serious adverse event: Renal failure, acute, subjects n (%)” value [3] was 0 (0.0). For the same compound, the “Serious adverse event: Renal failure, subjects n (%)” value [3] was 0 (0.0), the “Serious adverse event: Renal impairment, subjects n (%)” value [3] was 0 (0.0) and the “Serious adverse event: Respiratory failure, subjects n (%)” value [3] was 0 (0.0). For the same compound, the “Serious adverse event: Sepsis, subjects n (%)” value [3] was 0 (0.0), the “Serious adverse event: Subdural hematoma, subjects n (%)” value [3] was 0 (0.0) and the “Serious adverse event: Unevaluable event, subjects n (%)” value [3] was 0 (0.0). For the same compound, the “Adverse event where treatment was stopped: Bradycardia, subjects n (%)” value [4] was 0 (0.0), the “Adverse event where treatment was stopped: Hypotension, subjects n (%)” value [4] was 0 (0.0) and the “Adverse event where treatment was stopped: Pulmonary hemorrhage, subjects n (%)” value [4] was 0 (0.0). For the same compound, the “Adverse event where treatment was stopped: Sepsis, subjects n (%)” value [4] was 0 (0.0), the “Serious adverse event: Bradycardia, subjects n (%)” value [4] was 0 (0.0) and the “Serious adverse event: Brain edema, subjects n (%)” value [4] was 0 (0.0). For the same compound, the “Serious adverse event: Cardiac arrest, subjects n (%)” value [4] was 0 (0.0), the “Serious adverse event: Cerebral artery occlusion, subjects n (%)” value [4] was 0 (0.0) and the “Serious adverse event: Diabetic ketoacidosis, subjects n (%)” value [4] was 0 (0.0). For the same compound, the “Serious adverse event: Hemolytic anemia, subjects n (%)” value [4] was 0 (0.0), the “Serious adverse event: Hemopneumothorax, subjects n (%)” value [4] was 0 (0.0) and the “Serious adverse event: Hemothorax, subjects n (%)” value [4] was 0 (0.0). For the same compound, the “Serious adverse event: Hepatic failure, subjects n (%)” value [4] was 0 (0.0).
